Legend:
Format in all cases: in vivo
[1] = system: Bactrocera oleae (olive fly); assay: Uptake of alkylated porphyrins by flies fed porphyrin-containing bait; conditions: B. oleae
Experimental: (§1) Porphyrins: • a) meso[tri(N-methyl-pyridyl), mono(N-dodecyl-pyridyl)]porphine (abbr.: C12) • b) meso[tri(N-methyl-pyridyl), mono(N-tetradecyl-pyridyl)]porphine (abbr.: C14) • c) meso[tri(N-methyl-pyridyl), mono(N-octadecyl-pyridyl)]porphine (abbr.: C18) Bait: Aqueous solution containing 10% sucrose and 1% autolysed yeast Flies: • a) Ceratitis capitata (fruit fly) age: 1 week; weight: 5-6 mg • b) Bactrocera oleae (olive fly) age: 10 days; weight: 4-4.5 mg • c) Stomoxis calcitrans (stable fly) age: 10 days; weight: 12 mg Irradiation: • a) High pressure halogen lamp, equipped with infrared and UV filters, emission 360-850 nm, operated at intensities in the 760-2,000 μE s^−1m^−2 range • b) Sunlight, mid June at Padua latitude, average intensity of […] μE s^−1m^−2 with minimum and maximum values of 950 and, respectively, 1,380 μE s^−1m^−2
(§2) An appropriate number of flies (50 flies per each experiment) was caged in 115×55×70 mm Plexiglas cages with several holes (ø=0.5 mm) and starved for 36 h. Then, depending on the protocol to be adopted for each specific experiment, the flies were fed with the bait (10% sucrose and 1% autolysed yeast in neutral aqueous solution), which was either porphyrin-free or added with a predetermined concentration of the porphyrin. These flies were then used in the various experimental sessions.
(§3) At predetermined times, the flies were sacrificed by freezing; the dead flies were then homogenized with a Polytron in 10 ml of a 2% aqueous solution of sodium dodecylsulphate (SDS). The suspension was centrifuged for 10 min at 2,000 rpm, the pellet was discarded and known aliquots of the supernatant were diluted by means of a chloroform/methanol binary mixture (1/2, v/v). The porphyrin concentration was measured by reading the fluorescence emitted at wavelengths above 630 nm and interpolating the emission intensity with a calibration plot obtained with known amounts of the porphyrin. The results were expressed as nanomoles of porphyrin recovered per fly.

[2] = system: Ceratitis capitata (fruit fly); assay: as above; conditions: C. capitata
Experimental: as §1, §2, §3

[3] = system: Stomoxis calcitrans (stable fly); assay: as above; conditions: S. calcitrans
Experimental: as §1, §2, §3

[4] = system: Bactrocera oleae (olive fly); assay: Release of alkylated porphyrin from flies after feeding with bait interrupted; conditions: B. oleae, 1.25 μM porphyrin in the bait
Experimental: as §2, §3

[5] = system: Ceratitis capitata (fruit fly); assay: as above; conditions: C. capitata, 1.25 μM porphyrin in the bait
Experimental: as §2, §3

[6] = system: Stomoxis calcitrans (stable fly); assay: as above; conditions: S. calcitrans, 1.25 μM porphyrin in the bait
Experimental: as §2, §3

Ceratitis capitata flies [7] = assay: Insecticidal action in the dark: fly survival after porphyrin bait; conditions: dark, fed 24 h, survival 12 h after change to porphyrin-free bait
Experimental: For comparison, data obtained with two conventional porphyrins (as those described in WO 97/29637) offered to the insects for 24 h at a 3.0 and 8.1 μmolar concentration in the same bait are also shown. In all cases, the survival was determined 12 hours after changing food supply from a porphyrin-containing to a porphyrin-free bait. […] These flies were then used in the various experimental sessions. […] The number of survivors was evaluated 12 h after switching from administration of a porphyrin-containing bait to a porphyrin-free bait. In none of the experiments was mortality or any apparent toxic effect observed in control flies (flies not fed with porphyrin, see survival at 0 μM porphyrin concentration).

Bactrocera oleae flies = assay: as above; conditions: fed 24 h, survival 12 h after change to porphyrin-free bait
Experimental: (§4) These flies were then used in the various experimental sessions. […] The number of survivors was evaluated 12 h after switching from administration of a porphyrin-containing bait to a porphyrin-free bait. In none of the experiments was mortality or any apparent toxic effect observed in control flies (flies not fed with porphyrin, see survival at 0 μM porphyrin concentration).

[8] = system: Stomoxis calcitrans flies; assay: as above; conditions: fed 24 h, survival 12 h after change to porphyrin-free bait
Experimental: as §4

Ceratitis capitata flies [9] = assay: Photoinsecticidal action: fly survival after bait and sunlight irradiation; conditions: 3 μM in bait, 12 h after feeding, survival 1 h after irradiation
Experimental: as §1
The survival was evaluated 1 h after the end of irradiation.
as §2

[10] = exposure time to bait 3 h, porphyrin in bait 1.24 μM
[11] = exposure time to bait 12 h, porphyrin in bait 1.24 μM
[12] = exposure time to bait 24 h, porphyrin in bait 1.24 μM
[13] = porphyrin concentration in bait 0.75 (μmoles), feeding 24 h
[14] = porphyrin concentration in bait 1.25 (μmoles), feeding 24 h
[15] = porphyrin concentration in bait 2.10 (μmoles), feeding 24 h
[16] = porphyrin concentration in bait 3.50 (μmoles), feeding 24 h
[17] = porphyrin concentration in bait 6.00 (μmoles), feeding 24 h

In the case of `CCCCCCCCCCCC[n+]1ccc(-c2c3nc(c(-c4cc[n+](C)cc4)c4ccc([nH]4)c(-c4cc[n+](C)cc4)c4nc(c(-c5cc[n+](C)cc5)c5ccc2[nH]5)C=C4)C=C3)cc1` [C12, meso[tri(N-methyl-pyridyl), mono(N-dodecyl-pyridyl)]porphine], the “Recoveries (nmoles of porphyrin per fly)” value [1, 10] is reported as 0.8 nmoles of porphyrin per fly, the “Recoveries (nmoles of porphyrin per fly)” value [1, 11] is reported as 2.6 nmoles of porphyrin per fly and the “Recoveries (nmoles of porphyrin per fly)” value [1, 12] is reported as 3.2 nmoles of porphyrin per fly. The “Recoveries (nmoles of porphyrin per fly)” value [1, 13] was 2.7 nmoles of porphyrin per fly, the “Recoveries (nmoles of porphyrin per fly)” value [1, 14] was 3.2 nmoles of porphyrin per fly and the “Recoveries (nmoles of porphyrin per fly)” value [1, 15] was 6.5 nmoles of porphyrin per fly. For the same compound, the “Recoveries (nmoles of porphyrin per fly)” value [1, 16] was 9.3 nmoles of porphyrin per fly, the “Recoveries (nmoles of porphyrin per fly)” value [1, 17] was 10.6 nmoles of porphyrin per fly and the “Recoveries (nmoles of porphyrin per fly)” value [2, 10] was 1.2 nmoles of porphyrin per fly. For the same compound, the “Recoveries (nmoles of porphyrin per fly)” value [2, 11] was 3.9 nmoles of porphyrin per fly, the “Recoveries (nmoles of porphyrin per fly)” value [2, 12] was 4.1 nmoles of porphyrin per fly and the “Recoveries (nmoles of porphyrin per fly)” value [2, 13] was 2.9 nmoles of porphyrin per fly. For the same compound, the “Recoveries (nmoles of porphyrin per fly)” value [2, 14] was 4.1 nmoles of porphyrin per fly, the “Recoveries (nmoles of porphyrin per fly)” value [2, 15] was 7.3 nmoles of porphyrin per fly and the “Recoveries (nmoles of porphyrin per fly)” value [2, 16] was 9.1 nmoles of porphyrin per fly. For the same compound, the “Recoveries (nmoles of porphyrin per fly)” value [2, 17] was 12.5 nmoles of porphyrin per fly, the “Recoveries (nmoles of porphyrin per fly)” value [3, 10] was 1.4 nmoles of porphyrin per fly and the “Recoveries (nmoles of porphyrin per fly)” value [3, 11] was 3.2 nmoles of porphyrin per fly. The “Recoveries (nmoles of porphyrin per fly)” value [3, 12] was 3.7 nmoles of porphyrin per fly, the “Recoveries (nmoles of porphyrin per fly)” value [3, 13] was 2.5 nmoles of porphyrin per fly and the “Recoveries (nmoles of porphyrin per fly)” value [3, 14] was 3.7 nmoles of porphyrin per fly. The “Recoveries (nmoles of porphyrin per fly)” value [3, 15] was 6.0 nmoles of porphyrin per fly, the “Recoveries (nmoles of porphyrin per fly)” value [3, 16] was 9.0 nmoles of porphyrin per fly and the “Recoveries (nmoles of porphyrin per fly)” value [3, 17] was 9.7 nmoles of porphyrin per fly. For the same compound, the “Recoveries (nmoles of porphyrin per fly), release” value ([4]; 12 h after feeding interrupted) was 2.5 nmoles of porphyrin per fly, the “Recoveries (nmoles of porphyrin per fly), release” value ([4]; 24 h after feeding interrupted) was 1.4 nmoles of porphyrin per fly and the “Recoveries (nmoles of porphyrin per fly), release” value ([4]; 48 h after feeding interrupted) was 0.8 nmoles of porphyrin per fly. For the same compound, the “Recoveries (nmoles of porphyrin per fly), release” value ([5]; 12 h after feeding interrupted) was 2.6 nmoles of porphyrin per fly, the “Recoveries (nmoles of porphyrin per fly), release” value ([5]; 24 h after feeding interrupted) was 1.1 nmoles of porphyrin per fly and the “Recoveries (nmoles of porphyrin per fly), release” value ([5]; 48 h after feeding interrupted) was 0.7 nmoles of porphyrin per fly. For the same compound, the “Recoveries (nmoles of porphyrin per fly), release” value ([6]; 12 h after feeding interrupted) was 2.8 nmoles of porphyrin per fly, the “Recoveries (nmoles of porphyrin per fly), release” value ([6]; 24 h after feeding interrupted) was 2.0 nmoles of porphyrin per fly and the “Recoveries (nmoles of porphyrin per fly), release” value ([6]; 48 h after feeding interrupted) was 0.9 nmoles of porphyrin per fly. For the same compound, the “Survival (% of control untreated flies)” value (Ceratitis capitata flies [7]; 0.75 μM in bait) was 100 % of control untreated flies, the “Survival (% of control untreated flies)” value (Ceratitis capitata flies [7]; 1.25 μM in bait) was 73 % of control untreated flies and the “Survival (% of control untreated flies)” value (Ceratitis capitata flies [7]; 2.10 μM in bait) was 58 % of control untreated flies. For the same compound, the “Survival (% of control untreated flies)” value (Ceratitis capitata flies [7]; 3.00 μM in bait) was 42 % of control untreated flies, the “Survival (% of control untreated flies)” value (Ceratitis capitata flies [7]; 5.00 μM in bait) was 38 % of control untreated flies and the “Survival (% of control untreated flies)” value (Ceratitis capitata flies [7]; 8.10 μM in bait) was 35 % of control untreated flies. The “Survival (% of control untreated flies)” value (Bactrocera oleae flies; 0.75 μM in bait) was 100 % of control untreated flies, the “Survival (% of control untreated flies)” value (Bactrocera oleae flies; 1.25 μM in bait) was 100 % of control untreated flies and the “Survival (% of control untreated flies)” value (Bactrocera oleae flies; 2.10 μM in bait) was 85 % of control untreated flies. For the same compound, the “Survival (% of control untreated flies)” value (Bactrocera oleae flies; 3.00 μM in bait) was 72 % of control untreated flies, the “Survival (% of control untreated flies)” value (Bactrocera oleae flies; 5.00 μM in bait) was 58 % of control untreated flies and the “Survival (% of control untreated flies)” value (Bactrocera oleae flies; 8.10 μM in bait) was 51 % of control untreated flies. The “Survival (% of control untreated flies)” value ([8]; 0.75 μM in bait) was 100 % of control untreated flies, the “Survival (% of control untreated flies)” value ([8]; 1.25 μM in bait) was 82 % of control untreated flies and the “Survival (% of control untreated flies)” value ([8]; 2.10 μM in bait) was 64 % of control untreated flies. For the same compound, the “Survival (% of control untreated flies)” value ([8]; 3.00 μM in bait) was 47 % of control untreated flies, the “Survival (% of control untreated flies)” value ([8]; 5.00 μM in bait) was 29 % of control untreated flies and the “Survival (% of control untreated flies)” value ([8]; 8.10 μM in bait) was 16 % of control untreated flies. The “Survival (% of control untreated flies)” value (Ceratitis capitata flies [9]; sunlight (average 1150 μE s^−1m^−2) 15 min) was 33 % of control untreated flies, the “Survival (% of control untreated flies)” value (Ceratitis capitata flies [9]; sunlight (average 1150 μE s^−1m^−2) 30 min) was 17 % of control untreated flies and the “Survival (% of control untreated flies)” value (Ceratitis capitata flies [9]; sunlight (average 1150 μE s^−1m^−2) 45 min) was 10 % of control untreated flies. For the same compound, the “Survival (% of control untreated flies)” value (Ceratitis capitata flies [9]; sunlight (average 1150 μE s^−1m^−2) 60 min) was 2 % of control untreated flies.

Reference: US7384927B2, “Alkylated porphyrins as pesticides acting both in the presence and absence of light” (priority 2003, dated 2008)
